Source: ChEMBL document CHEMBL5550186, “Exploring the Potential of Cyclic Peptidyl Antitumor Agents Derived from Natural Macrocyclic Peptide Phakellistatin 13” (J Med Chem, 2024)
Calls of active or inactive are those of the source. The calls are words filed in the database; no cut-off is given here.

Columns and labels:
BEL-7404 tumor cell line = test: Antiproliferative activity against human BEL-7404 tumor cell line incubated for 48 hrs by MTT assay; assay type: functional, cell-based; settings: BEL-7404, 48 h
[1] = Antiproliferative activity against mouse L929 cells incubated for 48 hrs by MTT assay; assay type: toxicity, cell-based
HepG2 [2] = test: Induction of morphological changes in human HepG2 cells assessed as appearance of luminous morphology at 40 uM measured after 12 to 24 hrs by fluorescence inverted microscopic analysis; assay type: functional, cell-based; settings: time 12-24 hrs
HepG2 [3] = test: Induction of morphological changes in human HepG2 cells assessed as deterioration of cell membrane integrity at 40 uM measured after 12 to 24 hrs by fluorescence inverted microscopic analysis; assay type: functional, cell-based; settings: time 12-24 hrs
HepG2 [4] = test: Induction of apoptosis in human HepG2 cells assessed as viable cells at 10 uM incubated for 48 hrs by annexin V-FITC/PI staining based flow cytometry analysis (reference value: 99.3%); assay type: functional; settings: read-out: Activity
HepG2 [5] = test: Induction of apoptosis in human HepG2 cells assessed as early apoptotic cells at 5 uM incubated for 48 hrs by annexin V-FITC/PI staining based flow cytometry analysis (reference value: 0.50%); assay type: functional
HepG2 [6] = test: Induction of apoptosis in human HepG2 cells assessed as early apoptotic cells at 10 uM incubated for 48 hrs by annexin V-FITC/PI staining based flow cytometry analysis (reference value: 0.50%); assay type: functional
HepG2 [7] = test: Induction of apoptosis in human HepG2 cells assessed as late apoptotic cells at 20 uM incubated for 48 hrs by annexin V-FITC/PI staining based flow cytometry analysis (reference value: 0.16%); assay type: functional
HepG2 [8] = test: Induction of apoptosis in human HepG2 cells assessed as necrotic cells at 5 uM incubated for 48 hrs by annexin V-FITC/PI staining based flow cytometry analysis (reference value: 0%); assay type: functional
HepG2 [9] = test: Induction of cell cycle arrest in human HepG2 cells assessed as assessed as accumulation of cells at 2N phase at 10 uM incubated for 12 hrs by PI staining based flow cytometry analysis (reference value: 26.0%); assay type: functional
HepG2 [10] = test: Induction of cell cycle arrest in human HepG2 cells assessed as accumulation of cells at 2N phase at 5 uM incubated for 48 hrs by PI staining based flow cytometry analysis (reference value: 26.0%); assay type: functional
HepG2 [11] = test: Induction of cell cycle arrest in human HepG2 cells assessed as accumulation of cells at 2N phase at 10 uM incubated for 48 hrs by PI staining based flow cytometry analysis (reference value: 26.0%); assay type: functional
HepG2 [12] = test: Induction of cell cycle arrest in human HepG2 cells assessed as accumulation of cells at S phase at 10 uM incubated for 24 hrs by PI staining based flow cytometry analysis (reference value: 39.6%); assay type: functional
HepG2 [13] = test: Induction of cell cycle arrest in human HepG2 cells assessed as accumulation of cells at S phase at 20 uM incubated for 48 hrs by PI staining based flow cytometry analysis (reference value: 39.6%); assay type: functional
HepG2 [14] = test: Induction of cell cycle arrest in human HepG2 cells assessed as assessed as accumulation of cells at >G2/M phase at 10 uM incubated for 12 hrs by PI staining based flow cytometry analysis (reference value: 28.0%); assay type: functional
HepG2 [15] = test: Induction of cell cycle arrest in human HepG2 cells incubated for 48 hrs by PI staining based flow cytometry analysis; assay type: functional; settings: dose 5-20 µM
HepG2 [16] = test: Upregulation of p53 level in human HepG2 cells at 5 to 20 uM measured after 48 hrs by Western blot analysis; assay type: functional, cell-based; settings: dose 5-20 µM
Cell membrane [17] = test: Induction of mitochondrial membrane potential loss in human HepG2 cells assessed as decrease in fluorescence measured after 48 hrs by Rhodamine 123 staining based flow cytometry; assay type: cell membranes; settings: dose 5-20 µM
Cell membrane [18] = test: Induction of mitochondrial membrane potential loss in human HepG2 cells assessed as decrease in fluorescence at 20 uM measured after 48 hrs by Rhodamine 123 staining based flow cytometry (reference value: 66.8%); assay type: cell membranes; parameters: scale not given: the % may be the effect or the level left
Cell membrane [19] = test: Induction of mitochondrial membrane potential loss in human HepG2 cells assessed as decrease in fluorescence at 10 uM measured after 48 hrs by Rhodamine 123 staining based flow cytometry (reference value: 66.8%); assay type: cell membranes; parameters: scale not given: the % may be the effect or the level left
Cell membrane [20] = test: Induction of mitochondrial membrane potential loss in human HepG2 cells assessed as decrease in fluorescence at 5 uM measured after 48 hrs by Rhodamine 123 staining based flow cytometry (reference value: 66.8%); assay type: cell membranes; parameters: scale not given: the % may be the effect or the level left
Cell membrane [21] = test: Induction of mitochondrial membrane potential loss in human HepG2 cells assessed as decrease in fluorescence at 10 uM measured after 12 hrs by Rhodamine 123 staining based flow cytometry (reference value: 66.8%); assay type: cell membranes; parameters: scale not given: the % may be the effect or the level left
Cell membrane [22] = test: Induction of mitochondrial membrane potential loss in human HepG2 cells assessed as decrease in fluorescence at 10 uM by Rhodamine 123 staining based flow cytometry; assay type: cell membranes; settings: time 12-48 hrs, TDE = time-dependent effect
HepG2 [23] = test: Induction of apoptosis in human HepG2 cells assessed as increase in intracellular calcium level at 10 uM measured after 24 hrs by fluo-3AM dye based flow cytometry analysis; assay type: functional, cell-based
HepG2 [24] = test: Induction of apoptosis in human HepG2 cells assessed as increase in number of apoptotic cells at 5 to 10 uM measured after 24 hrs by annexin V-mCherry staining based fluorescence microscopic analysis; assay type: functional, cell-based; settings: dose 5-10 µM
4T1 = test: Antitumor activity in mouse 4T1 cells xenografted in Balb/c mouse assessed as inhibition of tumor growth at 6 mg/kg, iv measured every two days for 14 days; assay type: functional, organism-based; settings: time 14.0 day
[25] = Toxicity in Balb/c mouse assessed as effect on liver at 6 mg/kg, iv measured after 14 days by H and E staining based analysis; assay type: organism-based; settings: in vivo, 336 h, time 14 day
[26] = Toxicity in Balb/c mouse assessed as effect on tumor at 6 mg/kg, iv measured after 14 days by H and E staining based analysis; assay type: organism-based; settings: in vivo, 336 h, time 14 day
[27] = Upregulation of NGFR expression level in human HepG2 cells assessed as fold change by KEGG enrichment analysis; assay type: functional
[28] = Upregulation of GADD45A expression level in human HepG2 cells assessed as fold change by KEGG enrichment analysis; assay type: functional
[29] = Upregulation of GADD45B expression level in human HepG2 cells assessed as fold change by KEGG enrichment analysis; assay type: functional
[30] = Upregulation of DUSP6 expression level in human HepG2 cells assessed as fold change by KEGG enrichment analysis; assay type: functional
[31] = Upregulation of SYVN1 expression level in human HepG2 cells assessed as fold change by KEGG enrichment analysis; assay type: functional
[32] = Upregulation of CXCL2 expression level in human HepG2 cells assessed as fold change by KEGG enrichment analysis; assay type: functional
[33] = Upregulation of TRAF1 expression level in human HepG2 cells assessed as fold change by KEGG enrichment analysis; assay type: functional
[34] = Downregulation of NOTCH3 expression level in human HepG2 cells assessed as fold change by KEGG enrichment analysis; assay type: functional
[35] = Downregulation of DKK1 expression level in human HepG2 cells assessed as fold change by KEGG enrichment analysis; assay type: functional
in vitro = settings: human, Caco-2
Description: Apparent permeability of compound in human Caco-2 cells at 10 uM measured upto 120 mins by LC-MS/MS analysis

IC50 (BEL-7404 tumor cell line): 17.1 µM
Activity (Cell membrane [17]): Dose-Dependent Effect
Activity (Cell membrane [18]): 18.4%
Activity (Cell membrane [19]): 28.8%
Activity (Cell membrane [20]): 41.6%
Activity (Cell membrane [21]): 55.6%
Activity (Cell membrane [22]): Tde
Papp at 2 h, 10 µM (in vitro): > 200 nm/s
Structure (SMILES): CC(C)C[C@H]1NC(=O)[C@H]([C@@H](C)OCc2ccccc2)NC(=O)[C@H]2CCCN2C(=O)CN2C(=O)c3ccccc3[C@@]2(O)CN(Cc2ccccc2)C(=O)[C@H](Cc2ccccc2)NC(=O)[C@H]2CCCN2C(=O)[C@H](Cc2c[nH]c3ccccc23)NC1=O
IC50 at 48 h [1]: > 100 µM
Activity (HepG2 [2]): Active
Activity (HepG2 [3]): Active
viability at 10 µM (HepG2 [4]): 68.1%
Activity (HepG2 [5]): 16.8%
Activity (HepG2 [6]): 27.3%
Activity (HepG2 [7]): 6.88%
Activity (HepG2 [8]): 0%
Activity (HepG2 [9]): 27.8%
Activity (HepG2 [10]): 28.7%
Activity (HepG2 [11]): 33.5%
Activity (HepG2 [12]): 14.3%
Activity (HepG2 [13]): 11.7%
Activity (HepG2 [14]): 4.68%
Activity (HepG2 [15]): Dose-Dependent Effect
Activity (HepG2 [16]): Active
Activity (HepG2 [23]): Active
Activity (HepG2 [24]): Active
Activity (4T1): Active
Activity [25]: Non-Toxic
Activity [26]: Non-Toxic
fold change (FC) [27]: 1.584
fold change (FC) [28]: 1.519
fold change (FC) [29]: 1.146
fold change (FC) [30]: 1.112
fold change (FC) [31]: 1.048
fold change (FC) [32]: 1.751
fold change (FC) [33]: 1.094
fold change (FC) [34]: -1.52
fold change (FC) [35]: -3.288
